From publication PMC7822816, “Halo-fluorescein for photodynamic bacteria inactivation in extremely acidic conditions” (Nature Communications, 2021)

Tested on: H. pylori
Assay: IC50 of photodynamic inactivation, H. pylori
Conditions: Helicobacter pylori, 10 min, pH 2.5, read-out: IC50 (H. pylori)
Procedure: For quantitative comparison, the half-maximal inhibitory concentrations (IC50) of TIF for these bacterial were measured (Supplementary Table 6, and Supplementary Figs. 51–58).
Bacterial strains are listed in Supplementary Table 6. S. aureus and MRSA, and C. albicans were provided by West China Hospital of Stomatology, Sichuan University. A. acidoterrestris, S. enterica, H. pylori, L. plantarum, and E. coli were provided by College of Life Science, Sichuan University. The bacteria were cultured overnight in a constant temperature oscillator (37 °C, 170 r/min, the specific culture conditions were listed in Supplementary Table 6). Suspensions of bacteria (100 μL, diluted 1000-folds, PBS) were added with different concentration PSs (final volume of 1 mL), and irradiated with LED (λ = 520 nm, 35 mW/cm^2) for 10 min. Then, the treated bacteria liquid (100 μL) were added into the culture medium and cultured in a 24-well plate. The OD600 of bacteria was measured to obtain the bacteria CFUs, and the survival rate were calculated as C/C0 × 100%, where C is the CFU of sample which treated with PSs and light, and C0 is the blank without any treatment. All photodynamic sterilizations were carried out in at least three replicates.
Irradiation: 520 nm green LED (6 mW/cm2), 10 min. Error bars = Standard Deviation (n=3).
Irradiation: 520 nm green LED (6 mW/cm2), 10 min.

In the case of `O=C(O)c1ccccc1-c1c2cc(I)c(=O)c(I)c-2oc2c(I)c(O)c(I)cc12` [TIF, 2′,4′,5′,7′-tetraiodofluorescein], the IC50 is reported as 180 nM.
